Earlier results as cited in US8278268B2, “Combination therapy comprising glucose reabsorption inhibitors and PPAR modulators” (Ortho-McNeil Pharmaceutical, Inc., priority 2001, dated 2012).
Where two headings read alike, the source gives them in different places.

Key:
SGLT2 (SAAT1) = details: cited from earlier work; for Km: for D-glucose
SGLT1 = SGLT1 (Homo sapiens, UniProt P13866); details: read-out: Km in vitro; Sm. Intestine; stoichiometry 2:1; for D-glucose; cited from earlier work
Chain of SGLT1 (P13866 whole entry, species assumed): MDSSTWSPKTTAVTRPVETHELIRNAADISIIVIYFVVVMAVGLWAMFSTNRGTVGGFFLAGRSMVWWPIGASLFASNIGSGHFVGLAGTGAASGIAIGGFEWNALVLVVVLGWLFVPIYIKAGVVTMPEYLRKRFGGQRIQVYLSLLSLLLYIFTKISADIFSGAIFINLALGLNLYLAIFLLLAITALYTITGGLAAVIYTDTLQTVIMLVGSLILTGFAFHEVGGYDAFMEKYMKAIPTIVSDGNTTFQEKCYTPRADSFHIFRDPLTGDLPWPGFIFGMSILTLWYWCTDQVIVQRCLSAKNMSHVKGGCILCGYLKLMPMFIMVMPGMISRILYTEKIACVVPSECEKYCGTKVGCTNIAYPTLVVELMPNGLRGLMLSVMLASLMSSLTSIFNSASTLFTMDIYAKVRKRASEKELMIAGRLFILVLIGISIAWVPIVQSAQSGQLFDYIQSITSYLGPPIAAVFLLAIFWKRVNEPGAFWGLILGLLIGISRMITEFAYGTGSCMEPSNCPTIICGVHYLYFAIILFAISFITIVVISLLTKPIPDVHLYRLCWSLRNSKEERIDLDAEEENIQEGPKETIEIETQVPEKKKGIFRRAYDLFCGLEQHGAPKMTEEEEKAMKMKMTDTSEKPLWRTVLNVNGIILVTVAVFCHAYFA

O=C[C@H](O)[C@@H](O)[C@H](O)[C@H](O)CO [D-glucose]
TmG in vitro (maximal transport rate) (SGLT2 (SAAT1); Kidney (S1, S3), stoichiometry 2:1): 7.9 pmol/min/mm | Km (SGLT2 (SAAT1); Kidney (S1, S3), stoichiometry 2:1, read-out: Km in vitro): 390 µM | Km (SGLT2 (SAAT1); Kidney (S1, S3), stoichiometry 2:1, read-out: Km in vivo): 300 µM | TmG in vitro (maximal transport rate) (SGLT2 (SAAT1); Kidney (S3), stoichiometry 1:1): 83 pmol/min/mm | Km (SGLT2 (SAAT1); Kidney (S3), stoichiometry 1:1, read-out: Km in vitro): 1640 µM | Km (SGLT2 (SAAT1); Kidney (S3), stoichiometry 1:1, read-out: Km in vivo): 6000 µM | Km (SGLT1): 100 µM
